# From patent US8217074B2, “Use of sargachromenol” (Catholic University Industry Academic Cooperation Foundation, priority 2007, dated 2012)
# What was measured:
# [1] = Cytotoxicity analysis by MTT cell viability assay; type: cell-based, human; details: human, HaCaT keratinocytes
# Method: (§1) Cytotoxicity effect of the sargachromenol of the present invention isolated and purified in Example 1 on human keratinocytes HaCaT was investigated by MTT cell viability analysis.
# (§2) HaCaT cells were obtained from Professor N. Fusenig of the German Cancer Research Institute. The HaCaT cells were incubated in DMEM medium containing 10% FBS (Hyclone), 100 unit/mL penicillin and 100 μg/mL streptomycin at 37° C., in a 5% CO2 incubator. During the incubation, cell viability and number of cells were measured periodically using a hemacytometer (Neubauer, Germany) by the trypan blue exclusion method. In all experiments, initial cell viability was maintained over 95%.
# (§3) The cultured HaCaT cells were transferred to a 96-well plate, with 5×10^4 cells/well, and incubated at 37° C. in a 5% CO2 incubator for 24 hours. Then, the cultured HaCaT cells were treated with 0, 1, 2, 5 or 10 μg/mL sargachromenol, and further incubated at 37° C. in a 5% CO2 incubator for 24 hours. Then, without removing the medium, each well was treated with 5 mg/mL MTT reagent at a concentration of 20 μL/100 μL, and incubated for 2 hours. Subsequently, after removing the medium, 150 μL of DMSO was added to each well and cell viability was analyzed by measuring absorbance at 540 nm using an ELISA reader (Molecular Devices, USA). Cells non-treated with sargachromenol were used as control group. Cell viability was calculated as relative value of that of the control group (100%).
# [2] = tested on: human keratinocytes HaCaT; test: Cytotoxicity analysis by MTT cell viability assay; type: cell-based; details: 0, 1, 2, 5 or 10 μg/mL, 24 hours
# Method: as §1, §2, §3
# [3] = tested on: human keratinocytes HaCaT; test: Apoptosis by FACS analysis (Propidium Iodide staining); type: cell-based; details: 24 hours
# Method: Apoptosis effect of the sargachromenol of the present invention on human keratinocytes was investigated by FACS and TUNEL analysis. First, for FACS analysis, HaCaT cells were cultured in the same manner as in Example 2-1, transferred to a 10 cm plate, with 2×10^6 cells/well, and incubated at 37° C. in a 5% CO2 incubator for 24 hours. After treating the cells with 0, 1, 2 or 5 μg/mL sargachromenol, they were incubated at 37° C. in a 5% CO2 incubator for 24 hours. Then, the cells were released from the plate using trypsin, and fixed using 4% paraformaldehyde. The fixed cells were treated with 70% alcohol to increase cell membrane permeability. Then, the cells were stained with Propidium Iodide (PI) solution for 30 minutes, and subjected to FACS analysis. Cells treated with DMSO only and not with sargachromenol were used as control group.
# [4] = tested on: human keratinocytes HaCaT; test: Apoptosis by TUNEL analysis; type: cell-based; details: increasing concentration, 24 hours
# Method: For TUNEL analysis, the cells were incubated for 24 hours as above, and transferred to a chamber slide using an ApopTag® fluorescein in situ apoptosis detection kit. After adhering the cells to the bottom well, they were washed with pH 7.4 PBS solution. The chamber slide was immersed in PBS solution of 4% paraformaldehyde for 30 minutes at room temperature in order to completely fix the cells. And, the cells were washed with PBS and immersed in blocking solution (1% H2O2 in methanol) for 30 minutes at room temperature in order to inhibit the action of endogenous peroxidase. Then, the cells were washed with PBS and immersed in 0.1% sodium citrate solution containing 0.1% Triton X-100 at 4° C. for 2 minutes in order to make the cells permeable. For labeling, the cells were washed with PBS two more times and diluted TUNEL reaction mixture was added to the slide. After incubating in a 37° C. humidified chamber for 60 minutes, the slide was washed with PBS. Then, the slide was further incubated in TBS solution containing 1% BSA and 5% FBS for 20 minutes. After adding anti-fluorescein antibody conjugated with horse-radish peroxidase to the culture medium and reacting at 37° C. for 1 hour, the slide was washed with PBS and DAB-matrix solution was added. Hematoxylin solution was added for counter staining. […]
# [5] = tested on: caspase-8 and caspase-3 in human keratinocytes HaCaT; test: Western blot of apoptosis-related factors; type: cell-based
# Method: Human keratinocytes HaCaT cells were cultured in the same manner as in Example 2-1 and transferred to a 10 cm plate, at 2×10^6 cells/well. After about 18 hours of serum starvation, the cells were treated with 0, 1, 2 or 5 μg/mL sargachromenol. 18 hours later, the cells were lysed using RIPA buffer [12 mM EDTA, 137 mM NaCl, 20 mM Tris-HCl (pH 8.0), 1 mM Na3VO4 (Sigma-Aldrich, USA) 10 mM NaF (Sigma), 1 mM PMSF (Sigma), 1% Triton X-100, 10% glycerol and protease inhibitor cocktail (Roche, Germany)]. The lysed cells were put in a 1.5 mL tube and, after pipetting, put on ice for 20 minutes. The lysate was centrifuged at 14000 rpm for 20 minutes, and protein was isolated from the supernatant. Sample concentration of the isolated protein was determined using a BCA protein analysis kit (Pierce, Rockford, Ill.) and electrophoresis (SDS-PAGE) was carried out. Western blot analysis was carried out on the protein isolated by the electrophoresis. Western blot analysis was carried out as follows. After electrophoresis of the sample, the protein was transferred from the gel to a polyvinylidene fluoride membrane (Pall Corporation). Then, after blocking the membrane at room temperature for 2 hours using 3% BSA solution (Amresco, USA), it was treated with primary antibodies and reaction was carried out at room temperature for 2 hours. The primary antibodies were anti-caspase-3 antibody, anti-caspase-8 antibody and anti-actin antibody (Cell Signaling Technology, Beverly, Mass.), which are antibodies associated in apoptosis-related signaling. After reaction with the primary antibodies, it was washed with TBS for about 15 minutes and further reacted for 45 minutes by treating with secondary antibodies. The secondary antibodies were goat anti-mouse antibody and goat anti-rabbit antibody (Zymed, San Francisco, USA). Then, after washing sufficiently with TBS for over 30 minutes, protein was identified using an ECL detection kit (Santa Cruz). Cells not treated with sargachromenol were used as control group.
# [6] = tested on: UVB irradiated human keratinocytes HaCaT; test: MTT cell viability after sargachromenol pre-treatment and UVB irradiation; type: cell-based
# Method: Synergic apoptosis effect by UV and sargachromenol on human keratinocytes was investigated. HaCaT cells were cultured in the same manner as in Example 2-1 and transferred to a 6-well plate, at 3×10^5 cells/well. After about 12 hours of serum starvation, each well was pre-treated with 0, 0.5, 1, 2, 5 or 10 μg/mL sargachromenol, and UVB was irradiated at 150 J/m^2 (FS24T12/UVB/HO, Voltare Co., Fairfield, Conn., USA, 290-320 nm). 18 hours later, without removing the medium, each well was treated with 5 mg/mL MTT reagent at a concentration of 20 μL/100 μL, and incubated for 2 hours. Subsequently, after removing the medium, 150 μL of DMSO was added to each well and cell viability was analyzed by measuring absorbance at 540 nm using a spectrophotometer. Cells non-treated with sargachromenol were used as control group. Cell viability was calculated as relative value of that of the control group (100%).
# [7] = tested on: caspase-8, caspase-9 and caspase-3 in human keratinocytes HaCaT; test: Western blot of apoptosis-related factors after pre-treatment and UVB irradiation; type: cell-based
# Method: In Example 4, it was confirmed that UV further enhances the apoptosis of human keratinocytes by sargachromenol. Thus, it was investigated whether UV has effect on sargachromenol-induced apoptosis-related factors. First, human keratinocytes HaCaT cells were cultured in the same manner as in Example 2-1 and transferred to a 10 cm plate, at 2×10^6 cells/well. After about 18 hours of serum starvation, each well was pre-treated with 0, 2 or […] sargachromenol for 30 minutes and UVB was irradiated. 8 hours later, the cells were lysed using RIPA buffer [12 mM EDTA, 137 mM NaCl, 20 mM Tris-HCl (pH 8.0), 1 mM Na3VO4 (Sigma-Aldrich, USA) 10 mM NaF (Sigma), 1 mM PMSF (Sigma), 1% Triton X-100, 10% glycerol and protease inhibitor cocktail (Roche, Germany)]. Electrophoresis (SDS-PAGE) was carried out after determination of protein concentration. Western blot analysis was carried out on the isolated protein as in Example 3. Cells not treated with sargachromenol were used as control group.
# nerve cell = details: Chi Kwan Tsang et al, Neuroscience, 2005; cited from earlier work
structure (smiles),measurement,setting,value
CC(C)=CCC/C(=C/CC/C(C)=C/CCC1(C)C=Cc2cc(O)cc(C)c2O1)C(=O)O (centres unmarked) [sargachromenol],"viability at 24 h, 5 μg/mL","[1]; 5 μg/mL sargachromenol only, without UV irradiation",≥ 40%
same,"cytotoxicity at 24 h, 5 μg/mL","[1]; 5 μg/mL sargachromenol, 24 hours, relative to control group (100%), no UV, read-out: reduction of cell viability",40%
same,"cell viability, concentration dependence",[2],cell viability decreased as the concentration of sargachromenol increased
same,"apoptosis effect, concentration comparison (FACS)",[3]; 5 μg/mL versus 1 μg/mL,better at treatment with 5 μg/mL than 1 μg/mL
same,apoptosis effect versus control group (FACS),"[3]; 1, 2 or 5 μg/mL, control DMSO only",superior in the cells treated with sargachromenol than in the control group
same,number of TUNEL-positive (dead) cells,[4],increased as the concentration of the sargachromenol of the present invention increased
same,cleavage of caspase-8 and caspase-3,"[5]; 0, 1, 2 or 5 μg/mL, higher concentration, no UV",caspase-8 and caspase-3 were cleaved
same,quantity of cleaved protein,"[5]; 0, 1, 2 or 5 μg/mL, no UV",increased in a concentration-dependent manner
same,activation of caspase,"[5]; 5 μg/mL sargachromenol only, 18 hours later",Activation of caspase was observed
same,viability at 1 µg/mL,"[6]; Homo sapiens, HaCaT, light or radiation study, 1 μg/mL pre-treatment, UVB 150 J/m^2, 18 hours later",~25%
same,apoptosis versus cells without UV,"[6]; pre-treated with sargachromenol and irradiated with UV, compared with same condition without UV",much more increased apoptosis
same,activation of caspase,"[7]; 2 or 5 μg/mL sargachromenol only, no UVB, 8 hours",activation of caspase was not observed
same,cleaved caspases,"[7]; pre-treated with sargachromenol and irradiated with UVB, 8 hour later","cleaved caspase-8, caspase-9 and caspase-3 were observed"
same,NGF (nerve growth factor)-dependent nerve cell growth promoting activity,nerve cell,reported to have NGF (nerve growth factor)-dependent nerve cell growth promoting activity
